Measured values as given in US12428433B2, “Fluorine-containing heterocyclic derivatives with macrocyclic structure and use thereof” (ScinnoHub Pharmaceutical Co., Ltd, priority 2019, dated 2025).

System: MDR1 (P-gp)
Assay: Bidirectional permeability study on MDCK-MDR1 cell line
Format: in vitro ADME
Details: dog; for efflux ratio at 2 h, 1 μM: MDCK-MDR1, pH 7.4, read-out: Excretion ratio = Papp (B-A)/Papp (A-B); for Papp A→B at 2 h, 1 μM / Papp B→A at 2 h, 1 μM: pH 7.4, MDCK-MDR1, 1 μM
Experimental: MDCK-MDR1 cells were purchased from Netherlands Cancer Institute, and cells between 10 and 20 generations were used.
1) Before cell inoculation, 50 μL of cell medium was added into each well of an upper chamber of Transwell, and […] of cell medium was added into a lower culture plate. The culture plate was placed in an incubator at 37° C. under 5% CO2 for incubation for 1 hour, and then could be used for inoculating cells.
2) The MDCK-MDR1 cells were resuspended with the medium, so that a final concentration was 1.56×10^6 cells/mL. A cell suspension was added into an upper chamber of a 96-well Transwell culture plate according to 50 μL per well. The incubator was set at 37° C. under 5% CO2, and was ensured to have a relative humidity of 95% for culturing for 4 days to 8 days. The medium was replaced 48 hours after inoculation, the culturing lasted for 4 days to 8 days, and the medium was replaced every other day.
4) Calculation of resistance value: measured resistance value (ohms)×film area (cm^2)=TEER value (ohm cm^2), and if the TEER value was less than 42 ohms cm^2, the well could not be used for a penetration experiment.
1) The MDCK-MDR1 Transwell culture plate was taken from the incubator. The cell monolayer film was moistened and washed twice with a preheated HBSS (25 mM HEPES, pH 7.4) buffer, and incubated at 37° C. for 30 minutes.
2) A stock solution of the control compound and the test compound was diluted in DMSO to obtain a 200 μM solution, and then diluted with HBSS (10 mM HEPES, pH 7.4) to obtain a 1 μM working solution. A final concentration of DMSO in the incubation system was 0.5%.
3) A transfer rate of the compound from a top end to a base end was measured. 125 μL of working solution was added into the upper chamber (top end), then 50 μL of sample solution was immediately transferred from a lower chamber (base end) to a 96-well plate filled with 200 μL of acetonitrile containing an internal standard as a 0-minute administration sample (A-B) for detection, and 235 μL of HBSS (25 mM HEPES, pH 7.4) buffer was added into the lower chamber. The internal standard contained 100 nM alprazolam, 200 nM caffeine and 100 nM tolbutamide. The 50 μL of sample solution transferred above was vortexed at a speed of 1,000 rpm for 10 minutes.
4) A transfer rate of the compound from the base end to the top end was measured. 285 μL of working solution was added into the lower chamber (base end), then 50 μL of sample solution was immediately transferred from the upper chamber (top end) to a 96-well plate filled with 200 μL of acetonitrile containing an internal standard as a 0-minute administration sample (B-A) for detection, and 75 μL of HB SS (25 mM HEPES, pH 7.4) buffer was added into the upper chamber. The internal standard contained 100 nM alprazolam, 200 nM caffeine and 100 nM tolbutamide. The 50 μL of sample solution transferred above was vortexed at a speed of 1,000 rpm for 10 minutes. The experiment from the top end to the base end and the experiment from the base end to the top end should be carried out simultaneously.
5) After adding the buffers into the lower chamber and the upper chamber respectively, the MDCK-MDR1 Transwell culture plate was incubated at 37° C. for 2 hours.
6) After finishing incubating, 50 μL of sample solutions were respectively taken from an administration side (the upper chamber: Ap→Bl flux, the lower chamber: Bl→Ap) and a receiving side (the lower chamber: Ap→Bl flux, the upper chamber Bl→Ap) and added into new 96-well plates, and 4 times volume of […] containing the internal standard was added into the well plates. The internal standard substance contained 100 nM alprazolam, 200 nM caffeine and 100 nM tolbutamide. The solution was vortexed for 10 minutes, and then centrifuged at 3,220 g for 40 minutes. 100 μL of supernatant was sucked and mixed with equal volume of ultrapure water, and then subjected to LC-MS/MS analysis. […]

efflux ratio at 2 h, 1 μM | Papp A→B at 2 h, 1 μM | Papp B→A at 2 h, 1 μM | SMILES
4.67 | 11.1 ×10⁻⁶ cm/s | 51.9 ×10⁻⁶ cm/s | C[C@H]1Nc2nc3c(cnn3cc2F)C(=O)N[C@H]2C[C@H](C2)Oc2ncc(F)cc21 [Example 3, (3^1S,3^3S,6^3E,6^4E,8R)-1^5,6^6-difluoro-8-methyl-2-oxo-4,7-diaza-6(3,5)-pyrazolo[1,5-a]pyrimidine-1(2,3)-pyridine-3(1,3)-cyclobutylcyclooctane-5-one]
19.4 | 3.31 ×10⁻⁶ cm/s | 64.4 ×10⁻⁶ cm/s | C[C@H]1Nc2ccn3ncc(c3n2)C(=O)N[C@H]2C[C@H](C2)Oc2ncc(F)cc21 [Positive control 2, reference compound]
